SMILES strings stand for the structures.

This test has as its system LXRα and/or LXRβ. Put plainly: LXR/LXRE co-transfection assay (luciferase reporter, CV-1 cells). It counts as cell-based, human. Particulars: IC50 or EC50 for LXR (LXRα and/or LXRβ, not distinguished), tested as described in Example 109, CV-1 cells. The essentials:
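Luciferase readout after 20 h compound exposure at 37 °C in CV-1 cells transiently expressing human LXRα or LXRβ with RXRα and an LXRE-driven reporter. Dose-response over 8 points at ½-log spacing, 4 wells each, fitted for EC50/IC50; values average ≥3 independent experiments, efficacy as % of high control.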
In general terms: A reporter such as luciferase makes a cellular process visible.
For orientation: EC50 means the midpoint of the concentration-response curve. Turning to `CC(C)(O)c1cc(-c2ccc(-c3cccc(S(C)(=O)=O)c3)s2)n(-c2ccc(Cl)cc2)n1` [Example 1257, 2-[1-(4-chlorophenyl)-5-{5-[3-(methylsulfonyl)phenyl]-2-thienyl}-1H-pyrazol-3-yl]propan-2-ol], the EC50 is 1000 to 10000 nM. The result for `COC(C)(C)c1cc(-c2ccc(-c3cccc(S(C)(=O)=O)c3)s2)n(-c2ccccc2Cl)n1` [Example 134, 1-(2-chlorophenyl)-3-(2-methoxypropan-2-yl)-5-(5-(3-(methylsulfonyl)phenyl)thiophen-2-yl)-1H-pyrazole] reads under 1000 nM. With `CS(=O)(=O)c1cccc(-c2ccc(-c3cc(C(=O)N4CCC(C(=O)O)CC4)nn3-c3ccccc3Cl)s2)c1` [Example 592, 1-(1-(2-chlorophenyl)-5-(5-(3-(methylsulfonyl)phenyl)thiophen-2-yl)-1H-pyrazole-3-carbonyl)piperidine-4-carboxylic acid], the EC50 fell in the range of 1000 to 10000 nM. The result for `CC(C)(O)c1cc(-c2ccc(-c3cccc(S(C)(=O)=O)c3)cc2)n(-c2c(Cl)cccc2Cl)n1` [Example 133, 2-(1-(2,6-dichlorophenyl)-5-(3′-(methylsulfonyl)biphenyl-4-yl)-1H-pyrazol-3-yl)propan-2-ol] reads under 1000 nM; that for `CC(C)(O)c1cc(-c2ccc(-c3ccc(C=O)s3)cc2)n(-c2ccccc2Cl)n1` [Example 1289, 5-{4-[1-(2-chlorophenyl)-3-(1-hydroxy-1-methylethyl)-1H-pyrazol-5-yl]phenyl}thiophene-2-carbaldehyde], 1000 to 10000 nM; that for `CCN1CCC(CNC(=O)c2cc(-c3ccc(-c4cccc(S(C)(=O)=O)c4)s3)n(-c3ccccc3Cl)n2)C1` (stereo not drawn) [Example 739, 1-(2-chlorophenyl)-N-[(1-ethylpyrrolidin-3-yl)methyl]-5-{5-[3-(methylsulfonyl)phenyl}-2-thienyl}-1H-pyrazole-3-carboxamide], 1000 to 10000 nM. `CC(C)CNC(=O)c1cc(-c2ccc(-c3cccc(S(C)(=O)=O)c3)cc2Cl)n(-c2cccnc2C(F)(F)F)n1` [Example 1388, 5-(3-chloro-3′-(methylsulfonyl)biphenyl-4-yl)-N-isobutyl-1-(2-(trifluoromethyl)pyridin-3-yl)-1H-pyrazole-3-carboxamide] returned an EC50 of under 1000 nM.

`CS(=O)(=O)c1cccc(-c2ccc(-c3cc(C(=O)Nc4cccc(C(F)(F)F)c4)nn3-c3ccccc3Cl)s2)c1` [Example 1133, 1-(2-chlorophenyl)-5-{5-[3-(methylsulfonyl)phenyl]-2-thienyl}-N-[3-(trifluoromethyl)phenyl]-1H-pyrazole-3-carboxamide]: the EC50 is 1000 to 10000 nM. `CC(C)(O)c1cc(-c2ccc(-c3cccc(S(C)(=O)=O)c3)s2)n(-c2ccc(F)c(F)c2)n1` [Example 1267, 2-[1-(3,4-difluorophenyl)-5-{5-[3-(methylsulfonyl)phenyl]-2-thienyl}-1H-pyrazol-3-yl]propan-2-ol] displayed an EC50 of 1000 to 10000 nM. For `CC(C)(O)c1cc(-c2ccc(-c3cccc(S(C)(=O)=O)c3)s2)n(-c2c(Cl)cc(Cl)cc2C(F)(F)F)n1` [Example 1341, 2-(1-[2,4-dichloro-6-(trifluoromethyl)phenyl]-5-{5-[3-(methylsulfonyl)phenyl]-2-thienyl}-1H-pyrazol-3-yl)propan-2-ol] the value was 1000 to 10000 nM; for `CC(C)(O)c1cc(-c2cc(-c3cccc(S(C)(=O)=O)c3)cs2)n(-c2ccccc2Cl)n1` [Example 1250, 2-[1-(2-chlorophenyl)-5-{4-[3-(methylsulfonyl)phenyl]-2-thienyl}-1H-pyrazol-3-yl]propan-2-ol], 1000 to 10000 nM; for `CS(=O)(=O)c1cccc(-c2ccc(-c3cc(C(=O)NCC(F)(F)F)nn3-c3cccnc3C(F)(F)F)c(Cl)c2)c1` [Example 1401, 5-(3-chloro-3′-(methylsulfonyl)biphenyl-4-yl)-N-(2,2,2-trifluoroethyl)-1-(2-(trifluoromethyl)pyridin-3-yl)-1H-pyrazole-3-carboxamide], under 1000 nM. Compound `CC(=O)c1cc(-c2ccc(-c3cccc(S(C)(=O)=O)c3)s2)n(-c2c(Cl)cccc2Cl)n1` [Example 1242, 1-[1-(2,6-dichlorophenyl)-5-{5-[3-(methylsulfonyl)phenyl]-2-thienyl}-1H-pyrazol-3-yl]ethanone] came in with an EC50 of under 1000 nM. As for `CN(Cc1cc(-c2ccc(-c3cccc(S(C)(=O)=O)c3)s2)n(-c2ccccc2Cl)n1)Cc1ncco1` [Example 1147, 1-[1-(2-chlorophenyl)-5-{5-[3-(methylsulfonyl)phenyl]-2-thienyl}-1H-pyrazol-3-yl]-N-methyl-N-(1,3-oxazol-2-ylmethyl)methanamine], the EC50 is under 1000 nM. Compound `CC(C)(O)c1cc(-c2ccc(-c3cccc(S(C)(=O)=O)c3)cc2)n(Cc2cccc(Cl)c2Cl)n1` [Example 1400, 2-(1-(2,3-dichlorobenzyl)-5-(3′-(methylsulfonyl)biphenyl-4-yl)-1H-pyrazol-3-yl)propan-2-ol] registered an EC50 of under 1000 nM.

Compound `CC(C)(O)c1cc(-c2ccccc2Cl)n(-c2ccc(-c3cccc(S(C)(=O)=O)c3)nc2)n1` [Example 1246, 2-[5-(2-chlorophenyl)-1-(6-[3-(methylsulfonyl)phenyl]pyridin-3-yl}-1H-pyrazol-3-yl]propan-2-ol] registered an EC50 of 1000 to 10000 nM. `CC(C)(O)c1nn(-c2cccc(Cl)c2F)c(-c2ccc(-c3cccc(S(C)(=O)=O)c3)s2)c1Cl` [Example 1366, 2-[4-chloro-1-(3-chloro-2-fluorophenyl)-5-{5-[3-(methylsulfonyl)phenyl]-2-thienyl}-1H-pyrazol-3-yl]propan-2-ol] displayed an EC50 of under 1000 nM. The result for `CC(C)c1ccccc1-n1nc(C(C)(C)O)cc1-c1ccc(-c2cccc(S(C)(=O)=O)c2)s1` [Example 1345, 2-(1-[2-(1-methylethyl)phenyl]-5-{5-[3-(methylsulfonyl)phenyl]-2-thienyl}-1H-pyrazol-3-yl)propan-2-ol] reads under 1000 nM; that for `CC(CO)NC(=O)c1cc(-c2ccc(-c3cccc(S(C)(=O)=O)c3)s2)n(-c2ccccc2Cl)n1` (stereo not drawn) [Example 1270, 1-(2-chlorophenyl)-N-(2-hydroxy-1-methylethyl)-5-{5-[3-(methylsulfonyl)phenyl]-2-thienyl}-1H-pyrazole-3-carboxamide], 1000 to 10000 nM. Take `CC(=O)c1cc(-c2cc(C(F)(F)F)nn2-c2ccccc2Cl)ccc1-c1cccc(S(C)(=O)=O)c1` [Example 1206, 1-{4-[1-(2-chlorophenyl)-3-(trifluoromethyl)-1H-pyrazol-5-yl]-3′-(methylsulfonyl)biphenyl-2-yl}ethanone]: the concentration giving a half-maximal response (EC50) was under 1000 nM. For `CC(C)(O)c1cc(-c2ccc(-c3cccc(C#N)c3)s2)n(-c2ccccc2Cl)n1` [Example 1269, 3-{5-[1-(2-chlorophenyl)-3-(1-hydroxy-1-methylethyl)-1H-pyrazol-5-yl]-2-thienyl}benzonitrile] the value was 1000 to 10000 nM; for `COC(=O)c1cc(-c2ccccc2Cl)n(-c2ccc(-c3cccc(S(C)(=O)=O)c3)cn2)n1` [Example 1230, methyl 5-(2-chlorophenyl)-1-{5-[3-(methylsulfonyl)phenyl]pyridin-2-yl}-1H-pyrazole-3-carboxylate], 1000 to 10000 nM.

As for `CC(C)(O)c1cc(-c2ccccc2C(F)(F)F)n(-c2ccc(-c3cccc(S(C)(=O)=O)c3)cc2Cl)n1` [Example 140, 2-(1-(3-chloro-3′-(methylsulfonyl)biphenyl-4-yl)-5-(2-(trifluoromethyl)phenyl)-1H-pyrazol-3-yl)propan-2-ol], the concentration giving a half-maximal response (EC50) is under 1000 nM. The result for `CCN(CC)CCN(C)C(=O)c1cc(-c2ccc(-c3cccc(S(C)(=O)=O)c3)s2)n(-c2ccccc2Cl)n1` [Example 1140, 1-(2-chlorophenyl)-N-[2-(diethylamino)ethyl]-N-methyl-5-{5-[3-(methylsulfonyl)phenyl]-2-thienyl}-1H-pyrazole-5-carboxamide] reads 1000 to 10000 nM. Consider `CN1CCC(N(C(=O)c2ccc(-c3cc(C(F)(F)F)nn3-c3ccccc3Cl)cc2)C2CC2)CC1` [Example 1029, 4-[1-(2-chlorophenyl)-3-(trifluoromethyl)-1H-pyrazol-5-yl]-N-cyclopropyl-N-(1-methylpiperidin-4-yl)benzamide], for which the EC50 was 1000 to 10000 nM. The result for `CC(C)(O)c1cc(-c2ccc(-c3cc(C(F)(F)F)nn3-c3c(Cl)cccc3Cl)s2)cc(S(C)(=O)=O)c1` [Example 1317, 2-[3-{5-[1-(2,6-dichlorophenyl)-3-(trifluoromethyl)-1H-pyrazol-5-yl]-2-thienyl}-5-(methylsulfonyl)phenyl]propan-2-ol] reads under 1000 nM. Compound `Cc1n[nH]c(C)c1CN(C)Cc1cc(-c2ccc(-c3cccc(S(C)(=O)=O)c3)s2)n(-c2ccccc2Cl)n1` [Example 568, 1-[1-(2-chlorophenyl)-5-{5-[3-(methylsulfonyl)phenyl]-2-thienyl}-1H-pyrazol-3-yl]-N-[(3,5-dimethyl-1H-pyrazol-4-yl)methyl}-N-methylmethanamine] returned a concentration giving a half-maximal response (EC50) of 1000 to 10000 nM.

`CCN(Cc1ccncc1)Cc1cc(-c2ccc(-c3cccc(S(C)(=O)=O)c3)s2)n(-c2ccccc2Cl)n1` [Example 485, N-{[1-(2-chlorophenyl)-5-{5-[3-(methylsulfonyl)phenyl]-2-thienyl}-1H-pyrazol-3-yl]methyl}-N-(pyridin-4-ylmethyl)ethanamine] gave a half-maximal effective concentration (EC50) of under 1000 nM. `CC(C)(O)c1nn(-c2ccccc2OC(F)(F)F)c(-c2ccc(-c3cccc(S(C)(=O)=O)c3)s2)c1Br` [Example 1359, 2-(4-bromo-5-{5-[3-(methylsulfonyl)phenyl]-2-thienyl)-1-{2-[(trifluoromethyl)oxy]phenyl}-1H-pyrazol-3-yl)propan-2-ol] returned an EC50 of under 1000 nM. The result for `NS(=O)(=O)c1cccc(-c2ccc(-c3cc(C(F)(F)F)nn3-c3ccccc3Cl)cc2)c1` [Example 1137, 4′-[1-(2-chlorophenyl)-3-(trifluoromethyl)-1H-pyrazol-5-yl]biphenyl-3-sulfonamide] reads under 1000 nM.

For the origin of these results see patent US8703805B2 (Exelixis Patent Company LLC, priority 2005, dated 2014).
